Assay results reported in PubChem BioAssay AID1919004 (Molecular Pharmacology Branch, DTP, NCI, 2023).

System: 883617-216-R-J1-PDC complex spheroids, growth, % test/control
Assay: Anticancer human tumor 883617-216-R-J1-PDC patient-derived bladder carcinoma cell line growth inhibition [AhR]
Settings: for IC50: curve of first compound; for viability, T/C: stronger effect = lower value
Text: Multicellular complex tumor spheroid response to aryl hydrocarbon receptor antagonists in combination with a variety of drugs and investigational agents in selected tumor cell lines
The current study was undertaken to assess response to aryl hydrocarbon receptor antagonists in combination with standard-of-care drugs and investigational agents in solid tumor complex spheroid models. Complex spheroids include a stromal component modeled by human endothelial cells (HUVEC) and fibroblasts modeled by human mesenchymal stem cells (MSCs). The concentration ranges selected for each drug and investigational agent were based upon clinically achievable concentrations if the clinical Cmax of the agent was known.
Compounds. The drugs and investigational agents: BAY 2416964 (NSC825713), GNF351 (NSC835774), CH-223191 (NSC835775), CPI-455 (NSC825282), aza-TdCyd (NSC777586), decitabine (NSC127716), belinostat (NSC758774), entinostat (NSC756642), pevonedistat (NSC761192), tazemetostat (NSC777109), talazoparib (NSC765396), olaparib (NSC753686), selinexor (NSC780203), nedisertib (M3814, NSC802822), bortezomib (NSC756655), venetoclax (NSC766270), doxorubicin (NSC123127), elimusertib (BAY189344, NSC800525), ceralasertib (AZD6738, NSC777638), TAK-243 (NSC785004), alisertib (NSC759677), etoposide (NSC141540), topotecan (NSC609699), eribulin (NSC707389), gemcitabine (NSC613327), carboplatin (NSC241240), cisplatin (NSC119875), and SN-38 (NSC673596) were obtained from the National Cancer Institute (NCI) Developmental Therapeutics Program Chemical Repository (32). The FDA-approved anticancer drug set is available from the Developmental Therapeutics Program at https://dtp.cancer.gov/organization/dscb/obtaining/available plates.htm. […] The stock solutions were prepared in dimethyl sulfoxide (DMSO, Sigma-Aldrich, St. Louis, MO, cat. D2650), except for the platinum compounds which were prepared in saline (Quality Biological, Gaithersburg, MD, cat. 114-055-101), at 800-fold the tested concentration and stored at -70 degrees C prior to their use. All drugs and investigational agents were tested over a range starting from a high concentration at or near the clinical Cmax and decreasing in half-log increments. If the clinical Cmax for an agent had not been determined, the highest concentration tested was 10 microM (Table 1).
Cell Culture. All cells were maintained in an incubator at 37 degrees C and 5% CO2 with 95% humidity. The PDC lines were cultured according to standard operating procedures established by the NCI PDMR (https://pdmr.cancer.gov). Briefly, all PDCs were thawed and cultured in Matrigel-coated flasks prepared with a working solution of 1X Ham's F-12 nutrient mix, without supplementation (Invitrogen, Waltham, MA, cat. 11765054), 100 U/mL penicillin-streptomycin (Invitrogen, cat. 15140122), and 2.5% Matrigel (Corning Inc., Corning, NY, cat. 354248) for the first three passages. All PDCs were cultured in complete DMEM/F-12 media containing advanced DMEM/F-12 (Invitrogen, cat. 12634028), 4.9% defined fetal bovine serum, heat inactivated (HyClone Laboratories Inc., Logan, UT, cat. SH30070.03HI), 389 ng/mL hydrocortisone (Sigma-Aldrich, cat. H4001), 9.7 ng/mL human EGF recombinant protein (Invitrogen, cat. PHG0313), 23.4 microg/mL adenine (Sigma-Aldrich, cat. A2786), 97.3 U/mL penicillin-streptomycin (Invitrogen, cat. 15140122), 1.9 mM L-glutamine (Invitrogen, cat. 25030081), and 9.7 microM Y-27632 dihydrochloride (Tocris Bioscience, Bristol, United Kingdom, cat. 1254). The PDCs were cultured in complete DMEM/F12 media without 10 microM Y-27632 dihydrochloride for at least two passages prior to the screen. The established cell lines NCI-H1341 and […] were cultured in DMEM/F-12, HEPES (Invitrogen, cat. 11330032), 5% defined fetal bovine serum (HyClone Laboratories Inc., cat. SH30070.03), ITS premix universal culture supplement [insulin (5 microg/mL), transferrin (5 microg/mL), and selenious acid (5 ng/mL)] […]
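Further: exposure lasted 7 days after dosing on day 3 of spheroid growth.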

SMILES: CC(C)CC(NC(=O)C(Cc1ccccc1)NC(=O)c1cnccn1)B(O)O (stereo not given) + CC(CO)NC(=O)c1cc(-c2ccc(Cl)cc2)nn(-c2cnn(C)c2)c1=O
- IC50 (second compound 0.1 µM): 1.86 nM
- IC50 (second compound 0.316 µM): 2.2 nM
- IC50 (second compound 1 µM): 2.21 nM
- IC50 (second compound 3.16 µM): 1.59 nM
- IC50 (second compound 10 µM): 1.99 nM
- viability, T/C (second compound 0.1 µM, first compound 0.000949 µM): 106%
- viability, T/C (second compound 0.1 µM, first compound 0.003 µM): 10.4%
- viability, T/C (second compound 0.1 µM, first compound 0.00949 µM): 2.11%
- viability, T/C (second compound 0.1 µM, first compound 0.03 µM): 2.02%
- viability, T/C (second compound 0.1 µM, first compound 0.0949 µM): 1.92%
- viability, T/C (second compound 0.1 µM, first compound 0.3 µM): 3.28%
- viability, T/C (second compound 0.316 µM, first compound 0.000949 µM): 123%
- viability, T/C (second compound 0.316 µM, first compound 0.003 µM): 22.9%
- viability, T/C (second compound 0.316 µM, first compound 0.00949 µM): 2.66%
- viability, T/C (second compound 0.316 µM, first compound 0.03 µM): 3.45%
- viability, T/C (second compound 0.316 µM, first compound 0.0949 µM): 3.14%
- viability, T/C (second compound 0.316 µM, first compound 0.3 µM): 2.44%
- viability, T/C (second compound 1 µM, first compound 0.000949 µM): 123%
- viability, T/C (second compound 1 µM, first compound 0.003 µM): 23.5%
- viability, T/C (second compound 1 µM, first compound 0.00949 µM): 1.76%
- viability, T/C (second compound 1 µM, first compound 0.03 µM): 2.42%
- viability, T/C (second compound 1 µM, first compound 0.0949 µM): 1.86%
- viability, T/C (second compound 1 µM, first compound 0.3 µM): 3.98%
- viability, T/C (second compound 3.16 µM, first compound 0.000949 µM): 80.2%
- viability, T/C (second compound 3.16 µM, first compound 0.003 µM): 13.3%
- viability, T/C (second compound 3.16 µM, first compound 0.00949 µM): 3.01%
- viability, T/C (second compound 3.16 µM, first compound 0.03 µM): 2.25%
- viability, T/C (second compound 3.16 µM, first compound 0.0949 µM): 2.47%
- viability, T/C (second compound 3.16 µM, first compound 0.3 µM): 1.67%
- viability, T/C (second compound 10 µM, first compound 0.000949 µM): 122%
- viability, T/C (second compound 10 µM, first compound 0.003 µM): 10.3%
- viability, T/C (second compound 10 µM, first compound 0.00949 µM): 1.69%
- viability, T/C (second compound 10 µM, first compound 0.03 µM): 2.43%
- viability, T/C (second compound 10 µM, first compound 0.0949 µM): 2.25%
- viability, T/C (second compound 10 µM, first compound 0.3 µM): 1.87%
